Data reported in ChEMBL document CHEMBL1201862, “PubChem BioAssay data set” (2004).
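How tested: cells in 96-well plates exposed to compound for 48 hours at five concentrations. GI50 marks 50% less growth.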 Activity calls are given as the source filed them. Rule as the data show it: active = GI50 up to about 1.1 µM and inactive = higher.

Experiments:
Assay in all cases: NCI-60 cell line screen, 48 h
[1] = tested on: A549
[2] = tested on: BT-549
[3] = tested on: EKVX
[4] = tested on: HCT-116
[5] = tested on: HL-60
[6] = tested on: HOP-62
[7] = tested on: MCF7
[8] = tested on: MDA-MB-231
[9] = tested on: NCI-H23
[10] = tested on: RPMI-8226
[11] = tested on: SF-268
[12] = tested on: SK-OV-3
[13] = tested on: SN12C
[14] = tested on: SR
[15] = tested on: SW-620
[16] = tested on: TK-10
[17] = tested on: U-251

| SMILES | GI50 [1] | GI50 [2] | GI50 [3] | GI50 [4] | GI50 [5] | GI50 [6] | GI50 [7] | GI50 [8] | GI50 [9] | GI50 [10] | GI50 [11] | GI50 [12] | GI50 [13] | GI50 [14] | GI50 [15] | GI50 [16] | GI50 [17] |
| --- | --- | --- | --- | --- | --- | --- | --- | --- | --- | --- | --- | --- | --- | --- | --- | --- | --- |
| CCC1([N+](=O)[O-])CC2C=CC1C2 (configuration not stated) | > 100 µM (inactive) | > 100 µM (inactive) | > 100 µM (inactive) | > 100 µM (inactive) | 49.9 µM (inactive) | > 100 µM (inactive) | > 100 µM (inactive) | > 100 µM (inactive) | > 100 µM (inactive) | > 100 µM (inactive) | > 100 µM (inactive) | > 100 µM (inactive) | > 100 µM (inactive) | > 100 µM (inactive) | > 100 µM (inactive) | > 100 µM (inactive) | > 100 µM (inactive) |
| Cc1cn(C2CC(O)C(Cn3cc(Cn4ncc(=O)[nH]c4=O)nn3)O2)c(=O)[nH]c1=O (configuration not stated) | > 100 µM (inactive) | > 100 µM (inactive) | > 100 µM (inactive) | > 100 µM (inactive) | > 100 µM (inactive) | > 100 µM (inactive) | > 100 µM (inactive) | > 100 µM (inactive) | > 100 µM (inactive) | > 100 µM (inactive) | > 100 µM (inactive) | > 100 µM (inactive) | > 100 µM (inactive) | > 100 µM (inactive) | > 100 µM (inactive) | > 100 µM (inactive) | > 100 µM (inactive) |
| O=C(NCc1ccccc1)c1cc2ccccc2o/c1=N\c1ccccc1F | 18.1 µM (inactive) | > 100 µM (inactive) | 27.7 µM (inactive) | 23.4 µM (inactive) | > 100 µM (inactive) | 15.6 µM (inactive) | 33.7 µM (inactive) | 17.6 µM (inactive) | 21.5 µM (inactive) | > 100 µM (inactive) | 30.8 µM (inactive) | 16.5 µM (inactive) | 28.9 µM (inactive) | 32.7 µM (inactive) | 26.1 µM (inactive) | 13.6 µM (inactive) | 35.5 µM (inactive) |
| COC(=O)c1ccccc1C1CN=NC12Cc1cccc(C)c1C2=O (configuration not stated) | 39.3 µM (inactive) | 42.4 µM (inactive) | 65.6 µM (inactive) | 37.4 µM (inactive) | 24.7 µM (inactive) | 45.2 µM (inactive) | 43 µM (inactive) | > 100 µM (inactive) | 51.9 µM (inactive) | 29 µM (inactive) | 61.4 µM (inactive) | > 100 µM (inactive) | 36.1 µM (inactive) | 94.4 µM (inactive) | > 100 µM (inactive) | 65.9 µM (inactive) | 56 µM (inactive) |
| COc1ccc(Nc2nc(N)c(C(=O)c3ccco3)s2)cc1 | 27.3 µM (inactive) | > 67.8 µM (inactive) | > 58.3 µM (inactive) | 9.23 µM (inactive) | 5.04 µM (inactive) | > 63.8 µM (inactive) | 6.81 µM (inactive) | > 88.1 µM (inactive) | > 61.4 µM (inactive) | 16.6 µM (inactive) | 39.3 µM (inactive) | 35 µM (inactive) | > 70.8 µM (inactive) | 0.955 µM (active) | 13.2 µM (inactive) | 10.8 µM (inactive) | 40.4 µM (inactive) |
| O=C1/C(=C/c2ccc([N+](=O)[O-])cc2)CNC/C1=C\c1ccc([N+](=O)[O-])cc1 | 17.5 µM (inactive) | 2.69 µM (inactive) | 9.86 µM (inactive) | 0.63 µM (active) | 0.0944 µM (active) | 4.55 µM (inactive) | 2.74 µM (inactive) | 2.69 µM (inactive) | 4.62 µM (inactive) | 0.382 µM (active) | 1.65 µM (inactive) | 48 µM (inactive) | 5.41 µM (inactive) | 0.241 µM (active) | 0.638 µM (active) | 33.1 µM (inactive) | 0.469 µM (active) |
